In patent US20250179103A1, “6-OXODECAHYDROPYRROLO[1,2-A][1,5]DIAZOCINE AND 6-OXODECAHYDRO-4H-PYRROLO[2,1-D][1,5]THIAZOCINE DERIVATIVES AS STAT3 AND STAT6 MODULATORS FOR THE TREATMENT OF CANCER AND INFLAMMATORY CONDITIONS” (Recludix Pharma, Inc., priority 2022, published 2025):

Legend:
[1] = target: T1, Recombinant STAT3 protein (STAT3(G127-I722)) (Homo sapiens, UniProt P40763); assay: STAT3 Fluorescence Polarization (FP) Assay; type: binding; details: STAT3(G127-I722) 25 nM, probe 5-FAM-GpYLPQTV-NH2 2 nM, 45-minute incubation
T1 construct: Recombinant STAT3 protein (STAT3(G127-I722))
Method in brief: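 STAT3(G127-I722), 25 nM, was mixed with 2 nM 5-FAM-GpYLPQTV-NH2 probe in HEPES pH 7.4 buffer with 1% DMSO and serially diluted compound. FP (mP) was read after 45 min at room temperature. IC50 came from nonlinear regression.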

[2] = target: T2, Recombinant STAT6 protein (STAT6(W123-T658)) (Homo sapiens, UniProt P42226); assay: STAT6 Fluorescence Polarization (FP) Assay; type: binding; details: STAT6(W123-T658) 250 nM, probe 5-FAM-ApYKPFQDLI-NH2 2 nM, 45-minute incubation
T2 construct: Recombinant STAT6 protein (STAT6(W123-T658))
T2 sequence (P42226 123-658): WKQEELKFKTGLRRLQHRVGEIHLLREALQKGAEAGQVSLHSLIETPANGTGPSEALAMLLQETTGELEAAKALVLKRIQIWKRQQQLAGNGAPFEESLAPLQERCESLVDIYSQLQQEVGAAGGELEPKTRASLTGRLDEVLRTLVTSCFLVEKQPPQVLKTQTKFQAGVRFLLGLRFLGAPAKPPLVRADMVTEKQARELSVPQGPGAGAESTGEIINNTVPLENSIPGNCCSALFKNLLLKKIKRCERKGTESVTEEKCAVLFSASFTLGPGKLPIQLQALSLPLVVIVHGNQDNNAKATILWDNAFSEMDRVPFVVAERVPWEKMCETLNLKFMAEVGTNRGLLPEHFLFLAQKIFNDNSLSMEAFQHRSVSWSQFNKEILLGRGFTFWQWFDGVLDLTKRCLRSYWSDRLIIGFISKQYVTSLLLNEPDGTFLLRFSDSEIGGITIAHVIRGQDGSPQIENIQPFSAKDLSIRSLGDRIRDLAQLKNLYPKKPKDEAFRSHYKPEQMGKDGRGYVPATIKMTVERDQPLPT
Method in brief: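 Displacement of a fluorescent phosphotyrosine peptide (5-FAM-ApYKPFQDLI-NH2, 2 nM) from STAT6(W123-T658) (250 nM), 1% DMSO, pH 7.4 HEPES buffer. After 45 min at room temperature, polarization (mP) was plotted versus log compound concentration and fitted by nonlinear regression to give IC50.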

T1 sequence (P40763 127-722): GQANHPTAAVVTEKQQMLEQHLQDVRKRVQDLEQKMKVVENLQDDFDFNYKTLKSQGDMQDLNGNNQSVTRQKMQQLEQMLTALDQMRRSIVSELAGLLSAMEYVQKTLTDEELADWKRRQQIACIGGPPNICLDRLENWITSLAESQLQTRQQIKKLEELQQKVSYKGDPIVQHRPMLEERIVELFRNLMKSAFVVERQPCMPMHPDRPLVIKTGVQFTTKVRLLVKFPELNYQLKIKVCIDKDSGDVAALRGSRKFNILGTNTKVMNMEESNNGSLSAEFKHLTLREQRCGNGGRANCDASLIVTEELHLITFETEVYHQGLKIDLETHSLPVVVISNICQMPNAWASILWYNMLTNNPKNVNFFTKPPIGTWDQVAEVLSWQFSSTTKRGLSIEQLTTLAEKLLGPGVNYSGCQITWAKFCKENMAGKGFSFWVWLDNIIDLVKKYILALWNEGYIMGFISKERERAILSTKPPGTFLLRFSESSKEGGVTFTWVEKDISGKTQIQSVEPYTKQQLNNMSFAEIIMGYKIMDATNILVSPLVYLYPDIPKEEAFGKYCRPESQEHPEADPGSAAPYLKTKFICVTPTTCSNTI

IC50 [1] | IC50 [2] | Structure (SMILES)
1 to 10 µM | 0.3 to 3 µM | CC(=O)N1CC[C@H]2CC[C@@H](C(=O)N3CCC[C@H]3Cc3ccccc3)N2C(=O)[C@@H](NC(=O)c2ccc3ccc(C(F)(F)P(=O)(O)O)cc3c2)C1 [Compound 200, ((7-(((5S,8S,10aR)-3-acetyl-8-((S)-2-benzylpyrrolidine-1-carbonyl)-6-oxodecahydropyrrolo[1,2-a][1,5]diazocin-5-yl)carbamoyl)naphthalen-2-yl)difluoromethyl)phosphonic acid]
1 to 10 µM | 0.3 to 3 µM | CC(=O)N1CC[C@H]2CC[C@@H](C(=O)N(C)c3cccc(C(F)F)c3)N2C(=O)[C@@H](NC(=O)c2cc3cc(C(F)(F)P(=O)(O)O)ccc3s2)C1 [Compound 201, ((2-(((5S,8S,10aR)-3-acetyl-8-((3-(difluoromethyl)phenyl)(methyl)carbamoyl)-6-oxodecahydropyrrolo[1,2-a][1,5]diazocin-5-yl)carbamoyl)benzo[b]thiophen-5-yl)difluoromethyl)phosphonic acid]
1 to 10 µM | 0.3 to 3 µM | CC(=O)N1CC[C@H]2CC[C@@H](C(=O)N(C)c3ccc(C(F)F)cc3)N2C(=O)[C@@H](NC(=O)c2cc3cc(C(F)(F)P(=O)(O)O)ccc3s2)C1 [Compound 202, ((2-(((5S,8S,10aR)-3-acetyl-8-((4-(difluoromethyl)phenyl)(methyl)carbamoyl)-6-oxodecahydropyrrolo[1,2-a][1,5]diazocin-5-yl)carbamoyl)benzo[b]thiophen-5-yl)difluoromethyl)phosphonic acid]
≤ 0.1 µM | 0.3 to 3 µM | CC(=O)N1CC[C@H]2CC[C@@H](C(=O)N3CC(c4cccc(C#N)c4)C3)N2C(=O)[C@@H](NC(=O)c2cc3cc(C(F)(F)P(=O)(O)O)ccc3s2)C1 [Compound 208, ((2-(((5S,8S,10aR)-3-acetyl-8-(3-(3-cyanophenyl)azetidine-1-carbonyl)-6-oxodecahydropyrrolo[1,2-a][1,5]diazocin-5-yl)carbamoyl)benzo[b]thiophen-5-yl)difluoromethyl)phosphonic acid]
≤ 0.1 µM | 3 to 30 µM | O=C(N[C@H]1CCN(C(c2ccccc2)c2ccccc2)C[C@H]2CC[C@@H](C(=O)N3CC(c4cccnc4)C3)N2C1=O)c1cc2cc(C(F)(F)P(=O)(O)O)ccc2s1 [Compound 210, ((2-(((5S,8S,10aR)-2-benzhydryl-6-oxo-8-(3-(pyridin-3-yl)azetidine-1-carbonyl)decahydropyrrolo[1,2-a][1,4]diazocin-5-yl)carbamoyl)benzo[b]thiophen-5-yl)difluoromethyl)phosphonic acid]
1 to 10 µM | 3 to 30 µM | O=C(N[C@H]1CCNC[C@H]2CC[C@@H](C(=O)N3CC(c4cccnc4)C3)N2C1=O)c1cc2cc(C(F)(F)P(=O)(O)O)ccc2s1 [Compound 212, (difluoro(2-(((5S,8S,10aR)-6-oxo-8-(3-(pyridin-3-yl)azetidine-1-carbonyl)decahydropyrrolo[1,2-a][1,4]diazocin-5-yl)carbamoyl)benzo[b]thiophen-5-yl)methyl)phosphonic acid]
≤ 0.1 µM | 3 to 30 µM | O=C(N[C@H]1CCN(C(=O)OCc2ccccc2)C[C@H]2CC[C@@H](C(=O)N3CC(c4cccnc4)C3)N2C1=O)c1cc2cc(C(F)(F)P(=O)(O)O)ccc2s1 [Compound 214, ((2-(((5S,8S,10aR)-2-((benzyloxy)carbonyl)-6-oxo-8-(3-(pyridin-3-yl)azetidine-1-carbonyl)decahydropyrrolo[1,2-a][1,4]diazocin-5-yl)carbamoyl)benzo[b]thiophen-5-yl)difluoromethyl)phosphonic acid]
0.1 to 1 µM | ≤ 0.3 µM | O=C(N[C@H]1CN(C(=O)CCc2ccccc2)CC[C@H]2CC[C@@H](C(=O)Nc3ccc(-c4ccccc4)cc3)N2C1=O)c1cc2cc(C(F)(F)P(=O)(O)O)ccc2[nH]1 [Compound 215, ((2-(((5S,8S,10aR)-8-([1,1′-biphenyl]-4-ylcarbamoyl)-6-oxo-3-(3-phenylpropanoyl)decahydropyrrolo[1,2a][1,5]diazocin-5-yl)carbamoyl)-1H-indol-5-yl)difluoromethyl)phosphonic acid]
1 to 10 µM | 0.3 to 3 µM | C[C@H](C(=O)N1CC[C@H]2CC[C@@H](C(=O)N(C)c3ccccc3)N2C(=O)[C@@H](NC(=O)c2cc3cc(C(F)(F)P(=O)(O)O)ccc3[nH]2)C1)c1ccccc1 [Compound 216, (difluoro(2-(((5S,8S,10aR)-8-(methyl(phenyl)carbamoyl)-6-oxo-3-((S)-2-phenylpropanoyl)decahydropyrrolo[1,2 a][1,5]diazocin-5-yl)carbamoyl)-1H-indol-5-yl)methyl)phosphonic acid]
> 10 µM | 0.3 to 3 µM | C[C@@H](C(=O)N1CC[C@H]2CC[C@@H](C(=O)N(C)c3ccccc3)N2C(=O)[C@@H](NC(=O)c2cc3cc(C(F)(F)P(=O)(O)O)ccc3[nH]2)C1)c1ccccc1 [Compound 217, (difluoro(2-(((5S,8S,10aR)-8-(methyl(phenyl)carbamoyl)-6-oxo-3-((R)-2-phenylpropanoyl)decahydropyrrolo[1,2 a][1,5]diazocin-5-yl)carbamoyl)-1H-indol-5-yl)methyl)phosphonic acid]
1 to 10 µM | 0.3 to 3 µM | CN(C(=O)[C@@H]1CC[C@@H]2CCN(CC(F)F)C[C@H](NC(=O)c3cc4cc(C(F)(F)P(=O)(O)O)ccc4[nH]3)C(=O)N21)c1ccccc1 [Compound 218, ((2-(((5S,8S,10aR)-3-(2,2-difluoroethyl)-8-(methyl(phenyl)carbamoyl)-6-oxodecahydropyrrolo[1,2-a][1,5]diazocin-5-yl)carbamoyl)-1H-indol-5-yl)difluoromethyl)phosphonic acid]
1 to 10 µM | 0.3 to 3 µM | CN(C(=O)[C@@H]1CC[C@@H]2CCN(CC(F)(F)F)C[C@H](NC(=O)c3cc4cc(C(F)(F)P(=O)(O)O)ccc4[nH]3)C(=O)N21)c1ccccc1 [Compound 219, (difluoro(2-(((5S,8S,10aR)-8-(methyl(phenyl)carbamoyl)-6-oxo-3-(2,2,2-trifluoroethyl)decahydropyrrolo[1,2-a][1,5]diazocin-5-yl)carbamoyl)-1H-indol-5-yl)methyl)phosphonic acid]
> 10 µM | 0.3 to 3 µM | CN(C(=O)[C@@H]1CC[C@@H]2CCN(C(=O)c3ccccc3)C[C@H](NC(=O)c3cc4cc(C(F)(F)P(=O)(O)O)ccc4[nH]3)C(=O)N21)c1ccccc1 [Compound 220, ((2-(((5S,8S,10aR)-3-benzoyl-8-(methyl(phenyl)carbamoyl)-6-oxodecahydropyrrolo[1,2-a][1,5]diazocin-5-yl)carbamoyl)-1H-indol-5-yl)difluoromethyl)phosphonic acid]
1 to 10 µM | 0.3 to 3 µM | CC(C)C(=O)N1CC[C@H]2CC[C@@H](C(=O)N(C)c3ccccc3)N2C(=O)[C@@H](NC(=O)c2cc3cc(C(F)(F)P(=O)(O)O)ccc3[nH]2)C1 [Compound 221, (difluoro(2-(((5S,8S,10aR)-3-isobutyryl-8-(methyl(phenyl)carbamoyl)-6-oxodecahydropyrrolo[1,2-a][1,5]diazocin-5-yl)carbamoyl)-1H-indol-5-yl)methyl)phosphonic acid]
1 to 10 µM | 0.3 to 3 µM | CN(C)C(=O)[C@@H]1CC[C@@H]2CCN(c3ccccc3)C[C@H](NC(=O)c3cc4cc(C(F)(F)P(=O)(O)O)ccc4[nH]3)C(=O)N21 [Compound 223, ((2-(((5S,8S,10aR)-8-(dimethylcarbamoyl)-6-oxo-3-phenyldecahydropyrrolo[1,2-a][1,5]diazocin-5-yl)carbamoyl)-1H-indol-5-yl)difluoromethyl)phosphonic acid]
1 to 10 µM | 3 to 30 µM | CC(C)CN1CC[C@H]2CC[C@@H](C(=O)N(C)C)N2C(=O)[C@@H](NC(=O)c2cc3cc(C(F)(F)P(=O)(O)O)ccc3[nH]2)C1 [Compound 224, ((2-(((5S,8S,10aR)-8-(dimethylcarbamoyl)-3-isobutyl-6-oxodecahydropyrrolo[1,2-a][1,5]diazocin-5-yl)carbamoyl)-1H-indol-5-yl)difluoromethyl)phosphonic acid]
1 to 10 µM | 3 to 30 µM | CN(C)C(=O)[C@@H]1CC[C@@H]2CCN(Cc3ccccc3)C[C@H](NC(=O)c3cc4cc(C(F)(F)P(=O)(O)O)ccc4[nH]3)C(=O)N21 [Compound 225, ((2-(((5S,8S,10aR)-3-benzyl-8-(dimethylcarbamoyl)-6-oxodecahydropyrrolo[1,2-a][1,5]diazocin-5-yl)carbamoyl)-1H-indol-5-yl)difluoromethyl)phosphonic acid]
